# Experimental data published in patent publication US20230286973A1, “PROTEIN SECRETION INHIBITORS” (KEZAR LIFE SCIENCES, priority 2020, published 2023).
# Columns and labels:
# [1] = tested on: multiple myeloma cell line U266B1; experiment: U266 Cell Viability Assay; assay type: cell-based, human; conditions: Homo sapiens, U-266, 48 h, U266B1 cells, Celltiter-Glo
# In short: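 48 h treatment, 37° C./5% CO2, RPMI 1640 + 10% FBS; viability by CellTiter-Glo luminescence.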
# [2] = Liver Microsome Stability Assay (rat); conditions: rat liver microsomes, with NADPH, 1.0 uM compound
# Description: (§1) Stability of a compound was assessed in the presence of liver microsomes from various sources—mouse, rat, monkey and human liver microsomes. 1.0 uM compound, 0.4% DMSO in 0.1 M Potassium Phosphate with 1.0 mg/mL liver microsomes, were incubated at 37° C. with or without 1 mM NADPH. The samples were quenched at 0, and 30 minutes.
# [3] = Liver Microsome Stability Assay (monkey); conditions: monkey liver microsomes, with NADPH, 1.0 uM compound
# Description: as §1
# [4] = Liver Microsome Stability Assay (human); conditions: human liver microsomes, with NADPH, 1.0 uM compound
# Description: as §1
# [5] = tested on: multiple myeloma cell line NCI-H929; experiment: H929 Cell Viability Assay; assay type: cell-based, human; conditions: Homo sapiens, NCI-H929, 48 h, NCI-H929 cells, Celltiter-Glo
# In short: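 Plate the myeloma cells in RPMI 1640 with 10% FBS, add serially diluted compound, incubate for 48 hours at 37° C, then add CellTiter-Glo and read luciferase signal.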
# [6] = tested on: PD1-ss+10aa/Gaussia Luciferase; experiment: Dox-Induced PD1-ss-Gluc Assay; assay type: cell-based; conditions: 24 hr Dox induction; 293FRT/TO cells; mean; read-out: 24 hr Dox Inducible PD1ssGluc 293FRT/TO: Mean IC50
# In short: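 Flp-In 293 T-REx, stable line; Tet-regulated PD1-ss+10aa fused to Gaussia luciferase; plated day prior; cpd + doxycycline in DMSO/media; 37 °C, 5% CO2.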
# [7] = tested on: IL-2-FL/Gaussia Luciferase; experiment: Dox Induced IL2-FL-Gluc Assay; assay type: cell-based; conditions: for IC50: 24 hr Dox induction, 293FRT/TO cells, mean, read-out: 24 hr Dox Inducible IL2FLGluc 293FRT/TO: Mean IC50; for 24 hr Dox Inducible IL2FLGluc 293FRT/TO: IL2/PD1: ratio of IL2FLGluc IC50 to PD1ssGluc IC50, '<=>' given where both are I.A.
# In short: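 Reporter is Gaussia luciferase fused to the 3′ end of full-length IL-2 (aa 1-153), expressed from a doxycycline-inducible T-REx construct in stably selected Flp-In 293 cells. Compounds were co-added with doxycycline and incubated at 37° C, 5% CO2.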
# [8] = tested on: HER3-ss+4aa/Gaussia Luciferase; experiment: Dox-Induced Her3-ss-Gluc Assay; assay type: cell-based; conditions: 24 hr Dox induction; 293FRT/TO cells; mean; read-out: 24 hr Dox Inducible Her3(ss + 4)Gluc 293FRT/TO: Mean IC50
# In short: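 Expression of a Gaussia luciferase reporter carrying the HER3 signal sequence plus 4 amino acids is induced by doxycycline in stably transfected Flp-In 293 T-REx cells. Compounds are added with doxycycline at 37° C., 5% CO2. Undefined stereocentres denote stereoisomer mixtures.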
# [9] = Liver Microsome Stability Assay (mouse); conditions: mouse liver microsomes, with NADPH, 1.0 uM compound
# Description: as §1
# [10] = tested on: TNFα-FL/Gaussia Luciferase; experiment: Dox Induced TNFα-FL-Gluc Assay; assay type: cell-based; conditions: for IC50: 24 hr Dox induction, 293FRT/TO cells, mean, read-out: 24 hr Dox Inducible TNFaFLGluc 293FRT/TO: Mean IC50; for 24 hr Dox Inducible TNFaFLGluc 293FRT/TO: TNF/PD1: ratio of TNFaFLGluc IC50 to PD1ssGluc IC50, '<=>' given where both are I.A.
# In short: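 Cells are seeded one day ahead, then treated with compound plus doxycycline at 37 °C, 5% CO2. The stable Flp-In 293 T-REx line expresses full-length TNFα (amino acids 1-233) with Gaussia luciferase fused to its 3′ end, inducibly via T-REx.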
EC50 [1],Liver Microsome Stability (Multiple Species): Rat - % Remaining after 30 min w/NADPH [2],Liver Microsome Stability (Multiple Species): Monkey - % Remaining after 30 min w/NADPH [3],Liver Microsome Stability (Multiple Species): Human - % Remaining after 30 min w/NADPH [4],EC50 [5],IC50 [6],IC50 [7],IC50 [8],Liver Microsome Stability (Multiple Species): Mouse - % Remaining after 30 min w/NADPH [9],IC50 [10],SMILES,24 hr Dox Inducible IL2FLGluc 293FRT/TO: IL2/PD1 [7],24 hr Dox Inducible TNFaFLGluc 293FRT/TO: TNF/PD1 [10]
> 25 µM,0.98%,0.06%,0.01%,> 25 µM,> 25 µM,> 25 µM,> 25 µM,0.08%,> 25 µM,O=C(NC1=NC(/C=C/c2ccccc2)CS1)c1cccn1Cc1ccncc1 (stereo not drawn) [Compound E51],1,–
> 25 µM,9.09%,0.32%,0.44%,> 25 µM,> 25 µM,> 25 µM,> 25 µM,1.28%,> 25 µM,"Cc1ccc(S(=O)(=O)N(C(=O)c2cccn2Cc2ccncc2)c2nc([C@H]3CCCN3S(=O)(=O)c3ccc(C)cc3)cs2)cc1 [Compound E52, (R)-1-(pyridin-4-ylmethyl)-N-tosyl-N-(4-(1-tosylpyrrolidin-2-yl)thiazol-2-yl)-1H-pyrrole-2-carboxamide]",1,–
> 25 µM,5.58%,2.89%,7.99%,> 25 µM,> 25 µM,> 25 µM,> 25 µM,5%,> 25 µM,O=C(Nc1ccccn1)c1csc(NC(=O)c2cccn2Cc2ccncc2)n1 [Compound E53],1,–
> 25 µM,0.83%,0.56%,0.22%,15.2 µM,0.408 µM,0.932 µM,0.581 µM,0.39%,12.6 µM,"N#Cc1cnccc1Cn1cccc1C(=O)Nc1nc([C@H]2CCCN2c2ccccc2)cs1 [Compound E59, (R)-1-((3-cyanopyridin-4-yl)methyl)-N-(4-(1-phenylpyrrolidin-2-yl)thiazol-2-yl)-1H-pyrrole-2-carboxamide]",2.3,30.9
> 25 µM,2.04%,0.19%,1.3%,23.6 µM,0.802 µM,1.69 µM,1.28 µM,6.59%,> 25 µM,"N#Cc1cc(Cn2cccc2C(=O)Nc2nc([C@H]3CCCN3c3ccccc3)cs2)ccn1 [Compound E60, (R)-1-((2-cyanopyridin-4-yl)methyl)-N-(4-(1-phenylpyrrolidin-2-yl)thiazol-2-yl)-1H-pyrrole-2-carboxamide]",2.1,>31.2
> 25 µM,15.4%,0.19%,0.69%,0.126 µM,0.00294 µM,0.00989 µM,0.00852 µM,1.51%,0.043 µM,"Cc1ccc(N2CCC[C@@H]2c2csc(NC(=O)c3cccn3Cc3ccncc3)n2)nc1 [Compound E62, (R)-N-(4-(1-(5-methylpyridin-2-yl)pyrrolidin-2-yl)thiazol-2-yl)-1-(pyridin-4-ylmethyl)-1H-pyrrole-2-carboxamide]",3.4,14.6
